Test results as given in paper PMC9231089, “Sorafenib Chemosensitization by Caryophyllane Sesquiterpenes in Liver, Biliary, and Pancreatic Cancer Cells: The Role of STAT3/ABC Transporter Axis” (Pharmaceutics, 2022).
Marks after values point to notes of the source that are not given here.

What was measured:
MRP2 [1] = experiment: Immunofluorescence analysis in Bx-PC3 cells, MRP2; format: cell-based, human
Experimental: (§1) Suitable vehicle controls were also included.
(§2) The analysis was performed according to previously published methods. Confluent cells were seeded in 24-well plates (2 × 10^4 cells/well), allowed to adhere overnight, then treated as described above. After treatment, cells were fixed in pure methanol and washed with 4% bovine serum albumin (BSA) and PBS + Tween 20 (PBS-T) for 1 h. […] The expression and localization of Pgp, MRP1, and MRP2 pumps into cells were analyzed by using a Cytation 1 Cell Imaging Multimode Reader (Biotech, USA).

MRP1/2 [2] = experiment: ABC-mediated drug efflux assay, calcein-AM accumulation, Bx-PC3 cells; format: cell-based, human; conditions: 2 h pre-treatment, sesquiterpenes 10 μg/mL, MK571 1 μg/mL, vs control
MRP1/2 [3] = experiment: ABC-mediated drug efflux assay, calcein-AM accumulation, HepG2 cells; format: cell-based, human; conditions: 2 h pre-treatment, sesquiterpenes 10 μg/mL, vs control
Bx-PC3 [4] = experiment: MTT cytotoxicity assay, substances alone, Bx-PC3; format: cell-based, human
Experimental: as §1
(§3) The effect of the treatments on cell viability was measured by the MTT assay as previously described. A higher than 30% reduction of cell viability was considered as a significant cytotoxic effect.

Mz-ChA-1 [5] = experiment: MTT cytotoxicity assay, substances alone, Mz-ChA-1; format: cell-based, human; conditions: Mz-ChA-1
Experimental: as §1, §3

[6] = design: method as in PMID 33081075; conditions: European Food Safety Authority; cited from earlier work
HepG2 [7] = experiment: MTT cytotoxicity assay, substances alone, HepG2; format: cell-based, human; conditions: HepG2
Experimental: as §1, §3

Bx-PC3 cells = experiment: Wound healing assay (cell migration); format: cell-based, human
Experimental: To evaluate the effect of caryophyllane sesquiterpenes, both alone and in combination with sorafenib, on the cell migration rate, the wound healing assay was performed. Bx-PC3 cells were seeded in 24-well plate at a density of 2.5 × 10^5 cells/well. After 24 h, the wound was created by scratching the well bottom with a 100 μL pipette tip, then the cells were treated under the scheduled conditions and images were captured at 0, 4, and 72 h using a Cytation 1 Cell Imaging Multi-Mode Reader. […] Results were expressed as wound area percentage with respect to that of the same well at zero time. The positive controls were also included.

MDR1 = experiment: RT-qPCR gene expression in Bx-PC3 cells, MDR1
Experimental: (§6) Confluent cells were treated with the test substances, both alone or in combination with the anticancer drug, for 4 h, then washed and incubated for a further 72 h (Figure 1), according to previously published protocols [20]. […] Suitable vehicle controls were also included.
(§7) The results of mRNA abundance for the targeted genes in each sample were normalized on the basis of GAPDH (Bio-Rad, Hercules, CA, USA) mRNA. Data are expressed as 2^−ΔCt, calculated using the CFX Manager software (Bio-Rad).

MRP1 [8] = experiment: RT-qPCR gene expression in Bx-PC3 cells, MRP1; format: cell-based, human; conditions: substance in combination with sorafenib, given for MRP1 and MRP2 together
Description: as §1

MRP1/2 [9] = experiment: ABC-mediated drug efflux assay, calcein-AM accumulation, Mz-ChA-1 cells; format: cell-based, human; conditions: 2 h pre-treatment, sesquiterpenes 10 μg/mL, vs control
phospho(Tyr705)-STAT3 = experiment: Western blotting of STAT3 phosphorylation in Bx-PC3 cells; format: cell-based, human
Experimental: as §1
Confluent cells were seeded in 6-well plates (5 × 10^5 cells/well), treated as described above, then harvested by centrifugation and washed in PBS. After lysis with a suitable buffer, the Western blotting analysis was carried out, according to previously published methods. […] The levels of phospho(Tyr705)-STAT3 were normalized against total STAT3 ones.

MRP2 [10] = experiment: RT-qPCR gene expression in Bx-PC3 cells, MRP2; conditions: substance in combination with sorafenib, given for MRP1 and MRP2 together
Experimental: as §6, §7

Pgp [11] = target: T1, Pgp (Homo sapiens, UniProt P08183); experiment: ABC-mediated drug efflux assay, rhodamine 123 accumulation, HepG2 cells; conditions: 2 h pre-treatment, sesquiterpenes 10 μg/mL, verapamil 1 μg/mL, vs control
T1 sequence (P08183 whole entry): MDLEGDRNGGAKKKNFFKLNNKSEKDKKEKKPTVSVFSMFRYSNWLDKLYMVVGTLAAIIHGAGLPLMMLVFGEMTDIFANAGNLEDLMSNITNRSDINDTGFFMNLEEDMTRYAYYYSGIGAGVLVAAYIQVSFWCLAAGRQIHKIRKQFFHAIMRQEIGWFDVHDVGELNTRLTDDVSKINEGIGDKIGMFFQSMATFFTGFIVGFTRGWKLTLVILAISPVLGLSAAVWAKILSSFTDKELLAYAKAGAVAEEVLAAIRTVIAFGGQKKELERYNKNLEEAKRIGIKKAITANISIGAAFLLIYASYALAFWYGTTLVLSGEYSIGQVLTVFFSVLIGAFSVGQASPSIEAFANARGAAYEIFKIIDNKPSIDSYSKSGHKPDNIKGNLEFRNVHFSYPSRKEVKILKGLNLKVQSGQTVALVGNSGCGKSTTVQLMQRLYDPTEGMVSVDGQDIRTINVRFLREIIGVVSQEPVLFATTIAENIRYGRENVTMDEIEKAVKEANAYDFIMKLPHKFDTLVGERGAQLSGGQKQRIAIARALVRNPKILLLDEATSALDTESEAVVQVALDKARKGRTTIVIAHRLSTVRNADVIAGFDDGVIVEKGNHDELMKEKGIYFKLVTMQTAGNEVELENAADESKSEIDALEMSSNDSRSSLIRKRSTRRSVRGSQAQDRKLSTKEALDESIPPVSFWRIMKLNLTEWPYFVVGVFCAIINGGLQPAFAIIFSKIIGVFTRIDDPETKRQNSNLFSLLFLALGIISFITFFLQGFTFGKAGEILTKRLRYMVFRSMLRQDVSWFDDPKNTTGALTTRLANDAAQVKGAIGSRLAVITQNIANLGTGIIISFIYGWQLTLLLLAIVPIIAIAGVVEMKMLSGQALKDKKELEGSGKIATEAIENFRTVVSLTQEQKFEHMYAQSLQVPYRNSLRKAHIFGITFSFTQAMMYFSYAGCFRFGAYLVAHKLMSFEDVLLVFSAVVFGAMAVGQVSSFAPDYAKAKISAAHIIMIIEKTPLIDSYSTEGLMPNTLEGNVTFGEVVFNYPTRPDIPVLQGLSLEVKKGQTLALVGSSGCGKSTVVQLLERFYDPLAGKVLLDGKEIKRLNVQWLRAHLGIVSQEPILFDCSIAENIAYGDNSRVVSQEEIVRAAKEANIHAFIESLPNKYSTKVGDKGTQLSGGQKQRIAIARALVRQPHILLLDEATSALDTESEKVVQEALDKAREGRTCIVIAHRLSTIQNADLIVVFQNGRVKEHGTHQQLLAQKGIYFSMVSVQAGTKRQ
Experimental: (§4) The ability of β-caryophyllene and β-caryophyllene oxide to inhibit the activity of Pgp and MRP1/2 transporters was measured according to previously published methods with slight modifications. […] Fluorescence was measured at excitation and emission wavelengths of 485 nm and 535 nm for both probes, using a Cytation 1 Cell Imaging Multimode Reader (Biotech, Santa Clara, CA, USA). Results were normalized to viable cells and expressed as percentage of the negative control.

[12] = design: method as in PMID 30659321; conditions: previous in vivo study; cited from earlier work
[13] = system: noncancerous H69 cholangiocytes; experiment: MTT cytotoxicity assay (tolerability), substances alone, H69; format: cell-based, human; conditions: H69 noncancerous cholangiocytes; substance alone; 4 h exposure + 72 h recovery
Experimental: as §1, §3

Bx-PC3 [14] = experiment: Combination assay with sorafenib (MTT), Bx-PC3; format: cell-based, human;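 as to increase of sorafenib cytotoxicity in combination: percent increase of sorafenib cell viability inhibition versus sorafenib alone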
Experimental: as §1
(§5) The type of interaction (synergistic, additive, or antagonistic) among sorafenib and test substances or positive controls was evaluated by measuring the reversal ratio value (RR), combination index (CI), and isobolographic analysis (IB), as previously described.

Pgp [15] = experiment: Immunofluorescence analysis in Bx-PC3 cells, Pgp; format: cell-based, human
Experimental: as §1, §2

HepG2 [16] = experiment: Combination assay with sorafenib (MTT), HepG2; format: cell-based, human; conditions: for increase of sorafenib cytotoxicity in combination: verapamil/MK571 1 µg/mL or sesquiterpenes 10 µg/mL;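 as to increase of sorafenib cytotoxicity in combination: percent increase of sorafenib cell viability inhibition versus sorafenib alone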
Experimental: as §1, §5

Pgp [17] = target: T1, Pgp; experiment: ABC-mediated drug efflux assay, rhodamine 123 accumulation, Bx-PC3 cells; conditions: 2 h pre-treatment, sesquiterpenes 10 μg/mL, verapamil 1 μg/mL, vs control
Experimental: as §4

MRP1 [18] = experiment: Immunofluorescence analysis in Bx-PC3 cells, MRP1; format: cell-based, human; conditions: substance 10 µg/mL in combination with sorafenib 10 µg/mL
Experimental: as §1, §2

Pgp [19] = target: T1, Pgp; experiment: ABC-mediated drug efflux assay, rhodamine 123 accumulation, Mz-ChA-1 cells; conditions: 2 h pre-treatment, sesquiterpenes 10 μg/mL, verapamil 1 μg/mL, vs control
Experimental: as §4

[20] = system: noncancerous H69 cholangiocytes; experiment: Combination assay with sorafenib (MTT), tolerability in H69; format: cell-based, human; conditions: sesquiterpene 10 μg/mL combined with sorafenib (protective effect at sorafenib 10 μg/mL)
Experimental: as §1, §5

Mz-ChA-1 [21] = experiment: Combination assay with sorafenib (MTT), Mz-ChA-1; format: cell-based, human;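 as to increase of sorafenib cytotoxicity in combination: percent increase of sorafenib cell viability inhibition versus sorafenib alone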
Experimental: as §1, §5

[22] = substance alone, 4 h exposure + 72 h recovery
[23] = substance in combination with sorafenib 10 μg/mL

**Q.** Which results are given for C=C1CC[C@H]2O[C@]2(C)CC[C@@H]2[C@@H]1CC2(C)C [β-Caryophyllene oxide, β-caryophyllene oxide]?
**A.** reduction of MRP2 expression with respect to sorafenib (MRP2 [1]; substance 10 µg/mL in combination with sorafenib 10 µg/mL): 1.6 fold; increase of MRP2 expression (immunofluorescence) (MRP2 [1]; substance alone, 10 µg/mL): 1.2 fold; increase of calcein-AM accumulation (MRP1/2 [2]): ~3.0 fold; increase of calcein-AM accumulation (MRP1/2 [3]): approximately 1.3 fold; IC50 higher than that of sorafenib (Bx-PC3 [4]): 2.1 fold; inhibition of cell viability (Bx-PC3 [4]; 50 µg/mL): 30%; inhibition of cell viability (Bx-PC3 [4]; 250 µg/mL): 95%; IC50 (CL) (Bx-PC3 [4]; [22]): 65.3 (62.1–68.7) *** µg/mL; IC50 higher than that of sorafenib (Mz-ChA-1 [5]): 1.2 fold; inhibition of cell viability (Mz-ChA-1 [5]; 50 µg/mL): 16%; inhibition of cell viability (Mz-ChA-1 [5]; 250 µg/mL): 90%; IC50 (CL) (Mz-ChA-1 [5]; [22]): 94.5 (90.1–99.1) ** µg/mL; considered safe up to (approved as flavoring) [6]: ≤ 109 mg/kg/die; IC50 higher than that of sorafenib (HepG2 [7]): 1.7 fold; IC50 (CL) (HepG2 [7]; substance alone, 4 h exposure + 72 h recovery, CL confidence limits): 78.7 (76.8–80.5) *** µg/mL; wound area / cell migration after 72 h (Bx-PC3 cells; substance alone, sesquiterpenes 10 µg/mL, verapamil/MK571 1 µg/mL): blocked cell migration; increase of wound area (Bx-PC3 cells; substance in combination with sorafenib 10 µg/mL, reference and time not stated): ~5 fold; increase of MDR1 gene expression with respect to control (MDR1; [22]): 4.7 fold; downregulation of MDR1 gene with respect to sorafenib alone (MDR1; substance in combination with sorafenib): 1.3 fold; reduction of MRP1 gene expression (MRP1 [8]): 3 fold; increase of calcein-AM accumulation (MRP1/2 [9]): ~1.4 fold; increase of STAT3 phosphorylation at tyrosine 705 (phospho(Tyr705)-STAT3; substance alone, sorafenib and sesquiterpenes 10 μg/mL, verapamil/MK571 1 μg/mL, normalized to total STAT3): approximately 3 fold; reduction of phospho(Tyr705)-STAT3 with respect to sorafenib (phospho(Tyr705)-STAT3; [23]): 2.6 fold; reduction of MRP2 gene expression (MRP2 [10]): 3 fold; increase of rhodamine 123 accumulation (Pgp [11]): ~2.5 fold; safety in vivo up to [12]: ≤ 100 mg/kg; IC50 (CL) [13]: 99.7 (93.1–106.9) *** µg/mL; reduction of sorafenib IC50 in the presence of the substance (Bx-PC3 [14]): 9 fold; combination index (CI) with sorafenib (Bx-PC3 [14]; CI lower than 1 = synergistic): 0.26; increase of sorafenib cytotoxicity in combination (Bx-PC3 [14]; sesquiterpenes 10 µg/mL, sorafenib concentration not stated (Figure 3F)): 64%; effect on Pgp expression (immunofluorescence) (Pgp [15]; substance alone, sorafenib and sesquiterpenes 10 µg/mL, verapamil 1 µg/mL): did not affect; reduction of Pgp expression compared to control (Pgp [15]; [23]): ~1.8 fold; reduction of sorafenib IC50 in the presence of the substance (HepG2 [16]): ~6 fold; combination index (CI) with sorafenib (HepG2 [16]; CI lower than 1 = synergistic): 0.29; increase of sorafenib cytotoxicity in combination (HepG2 [16]; sorafenib 1 µg/mL): 20%; increase of sorafenib cytotoxicity in combination (HepG2 [16]; sorafenib 10 µg/mL): ~44%; increase of rhodamine 123 accumulation (Pgp [17]): approximately 2.7 fold; reduction of MRP1 expression with respect to sorafenib (MRP1 [18]): 1.5 fold; increase of rhodamine 123 accumulation (Pgp [19]): ~1.2 fold; effect on sorafenib cytotoxicity in noncancerous cells [20]: null effect; reduction of sorafenib IC50 in the presence of the substance (Mz-ChA-1 [21]): ~1.5 fold; combination index (CI) with sorafenib (Mz-ChA-1 [21]; CI lower than 1 = synergistic): 0.76; increase of sorafenib cytotoxicity in combination (Mz-ChA-1 [21]; sorafenib 10 µg/mL, verapamil/MK571 1 µg/mL or sesquiterpenes 10 µg/mL): 14%; increase of sorafenib cytotoxicity in combination (Mz-ChA-1 [21]; sorafenib 50 µg/mL, sesquiterpenes 10 µg/mL): 13%
